In patent US10226044B2, “Agricultural and horticultural composition and method for cultivating plant” (AJINOMOTO CO., INC., priority 2014, dated 2019):

Key:
tomato (Momotaro Fight) = assay: Sprinkling of various compounds on tomato (Momotaro): first appearance, coloring and number of fruit; type: in vivo; settings: per four root clumps; for number of fruit turning color to orange or red: 107th day after sowing, water: 0; for number of harvested fruits: after cultivation for 3 months after sowing, water: 8
Experimental: Three seeds of tomato (Momotaro Fight) were shown in compost contained in a slit pot, and cultivated in the same manner as described in Example 1, provided that the cultivation was performed in a greenhouse (daytime temperature was 25° C. (6:00 to 20:00), and night temperature was 15° C. (20:00 to 6:00)). The compost and application of fertilizer were the same or performed in the same manner as those described in Example 1. After 3 weeks, one root clump was left, and the others were thinned out. When a flower cluster of the first tier appeared, a support was put up, and after a flower cluster of the second tier appeared, pinching was performed (pinching of terminal bud). After the plants of four root clumps uniformly grew, and flower buds began to appear, water (Con.), 10 mM L-isoleucine aqueous solution (Ile), 10 mM monosodium glutamate aqueous solution (GluNa), 5 mM urea aqueous solution (Urea), or 10 mM phenylalanine aqueous solution (Phe) was sprinkled on the whole plants every two weeks. The sprinkled volume was adjusted in accordance with the growth of the plants, and it was 15 to 30 mL per one root clump. The concentration of urea was 5 mM so that nitrogen amount provided by it was the same as that provided by each of the amino acids. Then, the first appearance of fruit, ripening of fruit, and number of fruit produced were investigated for each root clump.

[1] = test system: VR callus derived from European grape; assay: Anthocyanin content of grape calluses treated with amino acids; type: cell-based, Vitis vinifera L.
Experimental: A cell line (VR, management number RPC00003) derived from European grape (Vitis vinifera L.) and stored in the Institute of Physical and Chemical Research, BioResource Center was subcultured on the MS agar medium. The subcultured VR callus was transferred to the MS agar medium containing a 5 mM solution of a different amino acid, and cultured. For the positive control, abscisic acid (ABA), for which coloring-promoting effect is known, was used at 100 μM (Jeong et al., Plant Science, 167:247-252, 2004). On the 5th day after the transfer, the callus was lyophilized and ground, and anthocyanin was extracted from it by using a 1% HCl/MeOH solution. Absorbance of the extract was measured at 530 nm, and the content of anthocyanin was measured by using cyanidine 3-glucoside as a standard substance.
(2) In the same manner as described above, anthocyanin content of grape calluses treated with isoleucine and proline, respectively, were measured.

[2] = test system: cherry tomato (Suncherry Pure); type: in vivo; settings: 10 mM sprinkled once a week
Experimental: Three seeds of cherry tomato (Suncherry Pure, Tokita Seed) were shown in compost contained in a slit pot, and cultivated in the same manner as described in Example 1, provided that the cultivation was performed in a greenhouse as in Example 2. The compost and application of fertilizer were the same or performed in the same manner as those described in Example 1. One month after the sowing, each seedling was permanently planted in a 9.0-cm long pot (top diameter 9 cm, height 20 cm, bottom diameter 6.4 cm), and cultivated until harvest. As for application of fertilizer, a 200-fold diluted solution of Vegetable Life A (Otsuka Chemical) was additionally applied as a fertilizer by irrigation in a volume of 100 mL per one root clump (pot) every two days from one month after the sowing to the harvest. After the plants of four root clumps uniformly grew, and flower buds began to appear, water (Con.), 10 mM L-isoleucine aqueous solution (Ile), or 10 mM proline aqueous solution (Pro) was sprinkled on the whole plants once a week. The sprinkled volume was adjusted in accordance with the growth of the plants, and it was 15 to 30 mL per one root clump. Then, ripening of fruit, number of fruit, amino acid content of fruit juice, sugar content and acidity of fruit juice, and antioxidant capacity of fruit juice were investigated for each root clump.

[3] = test system: cherry tomato (Suncherry Pure); assay: Amino acid analysis of tomato fruit obtained with sprinkling of Ile or Pro; type: in vivo; settings: fruit juice; plants sprinkled with 10 mM solution once a week; average of 8 fruit
Experimental: (§1) After the plants of four root clumps uniformly grew, and flower buds began to appear, water (Con.), 10 mM L-isoleucine aqueous solution (Ile), or 10 mM proline aqueous solution (Pro) was sprinkled on the whole plants once a week. The sprinkled volume was adjusted in accordance with the growth of the plants, and it was 15 to 30 mL per one root clump.
Mature fruit were taken from each of the cherry tomato plants sprinkled with water, Ile, or Pro, and the amino acid content was analyzed for each. Two pieces of fruit were taken from the flower cluster of the second tier of one root clump, that is, a total of 8 pieces of fruit were taken for each test group. Fruit juice was pressed out of each piece of fruit, and the fruit juice was diluted 10 times with 0.02 N HCl, and subjected to filter filtration. The amino acids contained in the obtained filtrate were measured. Measurement of the amino acids was performed with High Speed Amino Acid Analyzer L-8800 (Hitachi) according to the manual of this instrument. The amounts of the amino acids (μmol/mL) in each fruit juice filtrate were calculated, and the averages for eight pieces of fruit were used as the amino acid amounts of the corresponding test group.

[4] = test system: cherry tomato (Suncherry Pure); assay: Sugar content and acidity analysis of tomato fruit juice; type: in vivo; settings: 10 mM sprinkled once a week
Experimental: as §1
Mature tomato fruit were taken from cherry tomato plants of each experimental group in the same manner as described in iii) above, and fruit juice was pressed out from each fruit. Glucose content, fructose content, and acidity of each fruit juice extract were analyzed. Analysis of glucose and fructose was performed for a 20-fold diluted solution of fruit juice by using a food analysis reagent kit, F-Kit (Saccharose (Sucrose)/D-Glucose/D-Fructose Kit (Roche)) and DU800 Spectrophotometer (Beckman Coulter) according to the manuals of the kit and instrument. Acidity analysis was performed by using a pocket acidity meter (PAL-AC1, ATAGO).

N[C@@H](CCC(=O)O)C(=O)[O-].[Na+] [GluNa, monosodium glutamate]
number of fruit turning color to orange or red (tomato (Momotaro Fight)): 1
number of harvested fruits (tomato (Momotaro Fight)): 14

NC(N)=O [Urea, urea]
number of fruit turning color to orange or red (tomato (Momotaro Fight)): 1
number of harvested fruits (tomato (Momotaro Fight)): 10

N[C@@H](Cc1ccc(O)cc1)C(=O)O [Try, reference compound]
Relative anthocyanin content ([1]; 5 mM amino acid in MS agar medium, 5th day after transfer, positive control 100 μM abscisic acid (ABA) taken as 100%): 0%

O=C(O)[C@@H]1CCCN1 [Pro, proline, reference compound]
final crop yield: number of fruit produced, larger as compared to water (Con.) [2]: 9%
number of tomatoes that had changed color [2]: larger in the order of the tomato plants sprinkled with Ile, Pro, and water (Con.)
Ala in fruit juice [3]: 3.79 µmol/mL
Arg in fruit juice [3]: 0.13 µmol/mL
Asn in fruit juice [3]: 0.63 µmol/mL
Asp in fruit juice [3]: 1.75 µmol/mL
Cys in fruit juice [3]: 0.08 µmol/mL
Gln in fruit juice [3]: 1.57 µmol/mL
Glu in fruit juice [3]: 7.76 µmol/mL
Gly in fruit juice [3]: 0.24 µmol/mL
His in fruit juice [3]: 0.17 µmol/mL
Ile in fruit juice [3]: 0.15 µmol/mL
Leu in fruit juice [3]: 0.29 µmol/mL
Lys in fruit juice [3]: 0.27 µmol/mL
Met in fruit juice [3]: 0.14 µmol/mL
Phe in fruit juice [3]: 0.38 µmol/mL
Pro in fruit juice [3]: 0.39 µmol/mL
Ser in fruit juice [3]: 0.61 µmol/mL
Thr in fruit juice [3]: 0.27 µmol/mL
Total amino acids in fruit juice [3]: 21.13 µmol/mL
Trp in fruit juice [3]: 0.072 µmol/mL
Tyr in fruit juice [3]: 0.185 µmol/mL
Val in fruit juice [3]: 0.18 µmol/mL
γ-ABA in fruit juice [3]: 4.46 µmol/mL
acidity of the fruit, comparison of groups [4]: slightly increased
glucose content and fructose content of the fruit, comparison of groups [4]: lowest
Acidity ([4]; fruit juice of mature fruit): 0.47%
Fructose ([4]; fruit juice of mature fruit): 12.2 g/L
Glucose ([4]; fruit juice of mature fruit): 12.3 g/L
change in color of the grape callus (anthocyanin content) ([1]; Ile of 1 mM or higher, Pro compared with Ile): weaker

N[C@@H](Cc1ccccc1)C(=O)O [Phe, phenylalanine]
number of fruit turning color to orange or red (tomato (Momotaro Fight)): 0
number of harvested fruits (tomato (Momotaro Fight)): 8
